Here are results for 2 compounds from patent US6686449B2, “Mutant presenilin 1 polypeptides” (Pharmacia & Upjohn Company, priority 2000, dated 2004).

Where a SMILES comes first, the peptide text is derived from it. The star is where a group is joined. Cbz = O=C(OCc1ccccc1)*

Common to all, as to format: cell-based, human
The subject of assay [1] is Aβ1-42 production in APB10 cells (APP-Sw-KK and PS1-DTG385). The experiment in a line: Inhibition assay, stable cell lines: Elisa of Aβ1-42 in conditioned media, PS1-DTG385 cell line. Conditions: for dose response profile, Aβ1-42 production: PS1-DTG385 cell line. The source says:
(§1) The purpose of the experiment was to assess the effect of compounds known or postulated to have an effect on processing at the proposed gamma cleavage site
(§2) The compounds used were L685,458 (Bachem Cat # H-5106) described by Li et al (15), one we have designated 512088, a fenchylamine sulfonamide inhibitor described by Rishton et al. (16). Z-Leu-Leu-Leu-H, also known as MG132 (Peptide Institute Cat # 3175-v) described by Tajima et al (17), and DMSO (Aldrich Cat # 27,685-5) as a vehicle control. All drugs were resuspended in DMSO at a concentration of 10 mM. Serial dilutions of the drugs were made in cell culture media [DMEM (Gibco cat # 11965-092) supplemented with 10% fetal bovine serum, 1 mM sodium pyruvate, 100 units/ml penicillin G, 100 ug/ml streptomycin sulfate, and 400 ug/ml Geneticin]. Stable cell lines used for drug testing were H125.3-16 (expressing APP-Sw-KK), APA2 (co-expressing APP-Sw-KK and PS1-wt), APB10 (co-expressing APP-Sw-KK and PS1-DTG385), and APD3 (co-expressing APP-Sw-KK and PS1-M146V). APP-Sw-KK (An APP construct with a di-lysine motif at the C terminus) has been described in U.S. patent application Ser. No. 09/416901 filed Oct. 13, 1999 and also in WO 00/17369 “Alzheimer's Disease Secretase” published Mar. 30, 2000. Cells were plated at a concentration of 2.5×10^4 or 5.0×10^4 cells per well of a 96 well dish on day 1. Cells were treated with various concentrations of drugs on day 3. Conditioned media was harvested 24 hours post-treatment and analyzed in an Elisa assay for Aβ40 or Aβ42 levels (Described below). An MTS assay (Promega) was performed on the cells 24 hours post-treatment to assess toxicity levels of the drugs.
Primary Antibody 6E10 was purchased from Senetek PLC (St. Louis, Mo.). Secondary Antibodies 162, 163, 164 and 165 were purchased from New York Institute for Basic Research (Staten Island, N.Y.). β Bachem (Torrence, Calif.). β-Amyloid 1-40 is cat #ZN571) and 1-42 is cat #ZN327) Neutravidin was purchased from Pierce (Rockford, Ill.). The tetramethylbenzidine color development system was purchased from Kirkigaard & Perry Laboratories Inc. (Gaithersburg, Md.). Plates were read on a Molecular Devices Thermomax Plate Reader with integrated software that calculated the data and analyzed confidence values for the samples.
The coating buffer is 0.1M NaHCO3, pH8.2. Wash buffer is Dulbecco's PBS+0.05% Tween 20 (PBST). Blocking buffer is PBST+1% BSA (make up fresh the day of assay). The substrate is TMB Kirkegaard & Perry Labs. (cat.no.50-76-03). Plates are Costar 96 well half area EIA plates (cat.no.3690). Supplemental BSA is supplied as PBST+10% BSA made fresh on the day of assay.
1. Coat half area 96 well plates (Costar 3690) overnight @ 4° C. with capture antibody 6E10 (50 μl/well) made at […] in coating buffer, pH8.2.
2. Wash plates on an automatic plate washer 1× with wash buffer (175 μl/well).
3. Add 75 ul of blocking buffer to each well. Incubate 1 hr. @room temperature, then wash 3×.
4. Make standard curves from fresh aliquots for each amyloid in blocking buffer as follows:
b. Aβ 1-42 (10 μM. stock in DMSO): Make an initial dilution of […] then follow the instructions for Abeta 1-40 starting at the 1:100 dilution.
5. Add 50 μl of each std. (use duplicates) or sample dilution into the appropriate wells.
Incubate the standards and unknown samples @ room temperature for 3 to 4 hrs. If the samples being assayed contain no protein, 5 μl. of supplemental 10% BSA should be added to the sample wells before adding 50 μl. of sample.
6. […]

The subject of assay [2] is Aβ1-40 production in H125.3-16 (APP-Sw-KK) and APA2 (APP-Sw-KK and PS1-wt) cells. The experiment in a line: Inhibition assay, stable cell lines: Elisa of Aβ1-40 in conditioned media, PS1wt cell lines. Conditions: PS1wt cell lines (H125.3-16, APA2).
Source text: as §1
(§3) The compounds used were L685,458 (Bachem Cat # H-5106) described by Li et al (15), one we have designated 512088, a fenchylamine sulfonamide inhibitor described by Rishton et al. (16). Z-Leu-Leu-Leu-H, also known as MG132 (Peptide Institute Cat # 3175-v) described by Tajima et al (17), and DMSO (Aldrich Cat # 27,685-5) as a vehicle control. All drugs were resuspended in DMSO at a concentration of 10 mM. Serial dilutions of the drugs were made in cell culture media [DMEM (Gibco cat # 11965-092) supplemented with 10% fetal bovine serum, 1 mM sodium pyruvate, 100 units/ml penicillin G, 100 ug/ml streptomycin sulfate, and 400 ug/ml Geneticin]. Stable cell lines used for drug testing were H125.3-16 (expressing APP-Sw-KK), APA2 (co-expressing APP-Sw-KK and PS1-wt), APB10 (co-expressing APP-Sw-KK and PS1-DTG385), and APD3 (co-expressing APP-Sw-KK and PS1-M146V). […] Conditioned media was harvested 24 hours post-treatment and analyzed in an Elisa assay for Aβ40 or Aβ42 levels (Described below). […]
(§4) Primary Antibody 6E10 was purchased from Senetek PLC (St. Louis, Mo.). […] Plates were read on a Molecular Devices Thermomax Plate Reader with integrated software that calculated the data and analyzed confidence values for the samples. […]

Assay [3] concerns gamma-secretase (Aβ1-40 and Aβ1-42 production in three stable cell lines). The experiment in a line: Inhibition assay, stable cell lines: overall potency on Aβ1-40 and Aβ1-42 production. Conditions: greater than 512088.
Source text: as §1
The compounds used were L685,458 (Bachem Cat # H-5106) described by Li et al (15), one we have designated 512088, a fenchylamine sulfonamide inhibitor described by Rishton et al. (16). Z-Leu-Leu-Leu-H, also known as MG132 (Peptide Institute Cat # 3175-v) described by Tajima et al (17), and DMSO (Aldrich Cat # 27,685-5) as a vehicle control. All drugs were resuspended in DMSO at a concentration of 10 mM. Serial dilutions of the drugs were made in cell culture media [DMEM (Gibco cat # 11965-092) supplemented with 10% fetal bovine serum, 1 mM sodium pyruvate, 100 units/ml penicillin G, 100 ug/ml streptomycin sulfate, and 400 ug/ml Geneticin]. Stable cell lines used for drug testing were H125.3-16 (expressing APP-Sw-KK), APA2 (co-expressing APP-Sw-KK and PS1-wt), APB10 (co-expressing APP-Sw-KK and PS1-DTG385), and APD3 (co-expressing APP-Sw-KK and PS1-M146V). APP-Sw-KK (An APP construct with a di-lysine motif at the C terminus) has been described in U.S. patent application Ser. No. 09/416901 filed Oct. 13, 1999 and also in WO 00/17369 “Alzheimer's Disease Secretase” published Mar. 30, 2000. […] Conditioned media was harvested 24 hours post-treatment and analyzed in an Elisa assay for Aβ40 or Aβ42 levels (Described below). […]

Assay [4] has as its system Aβ1-42 production in H125.3-16 (APP-Sw-KK) and APA2 (APP-Sw-KK and PS1-wt) cells. Put plainly: Inhibition assay, stable cell lines: Elisa of Aβ1-42 in conditioned media, PS1wt cell lines. Conditions: for dose response profile, Aβ1-42 production: PS1wt cell lines (H125.3-16, APA2).
Source text: as §1, §2, §4

The subject of assay [5] is Aβ1-40 production in APB10 cells (APP-Sw-KK and PS1-DTG385). The experiment in a line: Inhibition assay, stable cell lines: Elisa of Aβ1-40 in conditioned media, PS1-DTG385 cell line.
Source text: as §1, §3, §4

Take `CC(C)C[C@H](NC(=O)[C@H](Cc1ccccc1)C[C@@H](O)[C@H](Cc1ccccc1)NC(=O)OC(C)(C)C)C(=O)N[C@@H](Cc1ccccc1)C(N)=O` [L685,458]: the “dose response profile, Aβ1-42 production” value is listed as “clearly biphasic” in assay [1] and “biphasic” in assay [4]. In addition, in assay [1] (PS1DTG385 cells), the “shift of the dose response compared with the PS1wt cell lines” value is given as “slightly lower potency”. For the same compound, the “dose response profile, inhibition of Aβ1-40” value in assay [2] was “biphasic dose response”; in assay [5], “linear decrease”. In addition, the “potency relative to 512088” value in assay [3] was “approximately 10 fold”.

Consider `CC(C)C[C@@H](C=O)NC(=O)[C@H](CC(C)C)NC(=O)[C@H](CC(C)C)NC(=O)OCc1ccccc1` [MG132, Z-Leu-Leu-Leu-H] (Cbz-Leu-Leu-Leu-aldehyde), for which the results for the “dose response profile, Aβ1-42 production” value in assay [1] and in assay [4] were “not strongly biphasic” and “strongly biphasic”, respectively. The “potentiation of production of Aβ1-42 relative to Aβ1-40” value in assay [1] (PS1DTG385 cells) was “does not happen”. The “peak in the dose response (Aβ1-42)” value came out at 0.3 µM in assay [1] (PS1DTG385 cells, FIG. 8) and 10 µM in assay [4] (PS1wt cell lines, FIG. 8). For the same compound, the entries for the “dose response profile, inhibition of Aβ1-40” value in assay [2] and in assay [5] were “not strongly biphasic in any of the cell lines except the parental PS1wt HEK125.3-16” and “not strongly biphasic”, respectively.
